ChEMBL document CHEMBL4507259 (2021)

Tests used:
[1] = target: Dual specificity testis-specific protein kinase 1 (Homo sapiens) (UniProt Q15569); settings: Compound concentration 1000.0 nM
[2] = target: Kappa-type opioid receptor (Homo sapiens) (UniProt P41145); settings: Compound concentration 10.0 uM
[3] = target: Mitogen-activated protein kinase kinase kinase 15 (Homo sapiens) (UniProt Q6ZN16); settings: Compound concentration 1000.0 nM
[4] = target: Calcium/calmodulin-dependent protein kinase type 1B (Homo sapiens) (UniProt Q6P2M8); settings: Compound concentration 1000.0 nM
[5] = target: Glutamate [NMDA] receptor (Homo sapiens) (UniProt Q05586+Q12879+Q13224+O15399+O60391+Q14957+Q8TCU5); assay: NMDA CEREP ligand profiling; assay type: protein-complex assay
[6] = target: Serine/threonine-protein kinase ULK1 (Homo sapiens) (UniProt O75385); settings: Compound concentration 1000.0 nM
[7] = target: Serine/threonine-protein kinase WNK3 (Homo sapiens) (UniProt Q9BYP7); settings: Compound concentration 1000.0 nM
[8] = test system: Fibroblast growth factor receptor 3 (Homo sapiens), P22607 [G697C]; settings: Compound concentration 1000.0 nM
[9] = test system: Mast/stem cell growth factor receptor Kit (Homo sapiens), P10721 [D816H]; settings: Compound concentration 1000.0 nM
[10] = test system: Receptor-type tyrosine-protein kinase FLT3 (Homo sapiens), P36888 [N841I]; settings: Compound concentration 1000.0 nM
[11] = target: Tyrosine-protein kinase JAK2 (Homo sapiens) (UniProt O60674); settings: Compound concentration 1000.0 nM
[12] = target: Protein kinase C theta type (Homo sapiens) (UniProt Q04759); settings: Compound concentration 1000.0 nM
[13] = test system: Phosphatidylinositol 4,5-bisphosphate 3-kinase catalytic subunit alpha isoform (Homo sapiens), P42336 [E545K]; settings: Compound concentration 1000.0 nM
[14] = target: Motilin receptor (Homo sapiens) (UniProt O43193); assay: motilin (h) CEREP ligand profiling; settings: filed as agonist, Compound concentration 10.0 uM
[15] = test system: eIF-2-alpha kinase GCN2 (Homo sapiens), Q9P2K8 [S808G]; settings: Compound concentration 1000.0 nM
[16] = target: Histamine H4 receptor (Homo sapiens) (UniProt Q9H3N8); settings: Compound concentration 10.0 uM
[17] = target: Androgen receptor (Homo sapiens) (UniProt P10275); assay: AR (h) CEREP ligand profiling; settings: filed as agonist, Compound concentration 10.0 uM
[18] = test system: Epidermal growth factor receptor (Homo sapiens), P00533 [L858R]; settings: Compound concentration 1000.0 nM
[19] = target: Ribosomal protein S6 kinase alpha-6 (Homo sapiens) (UniProt Q9UK32); settings: Compound concentration 1000.0 nM
[20] = target: Tyrosine-protein kinase Srms (Homo sapiens) (UniProt Q9H3Y6); settings: Compound concentration 1000.0 nM
[21] = target: Receptor tyrosine-protein kinase erbB-2 (Homo sapiens) (UniProt P04626); settings: Compound concentration 1000.0 nM
[22] = target: Myosin light chain kinase (Homo sapiens) (UniProt Q32MK0); settings: Compound concentration 1000.0 nM
[23] = target: Serine/threonine-protein kinase DCLK2 (Homo sapiens) (UniProt Q8N568); settings: Compound concentration 1000.0 nM
[24] = target: Dual specificity protein kinase CLK3 (Homo sapiens) (UniProt P49761); settings: Compound concentration 1000.0 nM
[25] = target: Serine/threonine-protein kinase PLK2 (Homo sapiens) (UniProt Q9NYY3); settings: Compound concentration 1000.0 nM
[26] = target: Histamine H1 receptor (Homo sapiens) (UniProt P35367); settings: Compound concentration 10.0 uM
[27] = test system: Hepatocyte growth factor receptor (Homo sapiens), P08581 [Y1235D]; settings: Compound concentration 1000.0 nM
[28] = target: Serine/threonine-protein kinase STK11 (Homo sapiens) (UniProt Q15831); settings: Compound concentration 1000.0 nM
[29] = target: Leukocyte tyrosine kinase receptor (Homo sapiens) (UniProt P29376); settings: Compound concentration 1000.0 nM
[30] = target: Calcium/calmodulin-dependent protein kinase kinase 1 (Homo sapiens) (UniProt Q8N5S9); settings: Compound concentration 1000.0 nM
[31] = target: Beta-1 adrenergic receptor (Homo sapiens) (UniProt P08588); assay: beta 1 (h) CEREP ligand profiling; settings: filed as agonist, Compound concentration 10.0 uM
[32] = test system: Receptor-type tyrosine-protein kinase FLT3 (Homo sapiens), P36888 [D835V]; settings: Compound concentration 1000.0 nM
[33] = target: Serine/threonine-protein kinase Nek1 (Homo sapiens) (UniProt Q96PY6); settings: Compound concentration 1000.0 nM
[34] = target: T1, 5-hydroxytryptamine receptor 3A (Homo sapiens) (UniProt P46098); assay: 5-HT3 (h) CEREP ligand profiling; settings: filed as antagonist, Compound concentration 10.0 uM
T1 sequence (whole entry): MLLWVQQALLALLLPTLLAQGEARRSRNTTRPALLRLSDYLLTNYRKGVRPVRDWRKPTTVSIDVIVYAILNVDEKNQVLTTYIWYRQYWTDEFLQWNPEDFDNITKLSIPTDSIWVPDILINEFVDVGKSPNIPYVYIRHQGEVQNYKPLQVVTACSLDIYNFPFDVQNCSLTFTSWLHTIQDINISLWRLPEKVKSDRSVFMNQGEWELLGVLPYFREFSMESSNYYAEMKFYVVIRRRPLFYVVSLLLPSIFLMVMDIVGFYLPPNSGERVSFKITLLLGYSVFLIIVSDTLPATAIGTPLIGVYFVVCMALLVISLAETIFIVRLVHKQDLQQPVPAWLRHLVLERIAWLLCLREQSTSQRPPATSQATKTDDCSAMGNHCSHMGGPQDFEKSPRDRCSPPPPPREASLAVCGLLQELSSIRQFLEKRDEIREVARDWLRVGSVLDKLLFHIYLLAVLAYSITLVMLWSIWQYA

[35] = target: Alpha-2C adrenergic receptor (Homo sapiens) (UniProt P18825); settings: Compound concentration 10.0 uM
[36] = test system: Tyrosine-protein kinase ABL1 (Homo sapiens), P00519 [T315I]; settings: Compound concentration 1000.0 nM
[37] = target: Calcium/calmodulin-dependent protein kinase type II subunit delta (Homo sapiens) (UniProt Q13557); settings: Compound concentration 1000.0 nM
[38] = target: Tyrosine-protein kinase Fgr (Homo sapiens) (UniProt P09769); settings: Compound concentration 1000.0 nM

Leukocyte tyrosine kinase receptor (Homo sapiens), sequence (P29376 whole entry): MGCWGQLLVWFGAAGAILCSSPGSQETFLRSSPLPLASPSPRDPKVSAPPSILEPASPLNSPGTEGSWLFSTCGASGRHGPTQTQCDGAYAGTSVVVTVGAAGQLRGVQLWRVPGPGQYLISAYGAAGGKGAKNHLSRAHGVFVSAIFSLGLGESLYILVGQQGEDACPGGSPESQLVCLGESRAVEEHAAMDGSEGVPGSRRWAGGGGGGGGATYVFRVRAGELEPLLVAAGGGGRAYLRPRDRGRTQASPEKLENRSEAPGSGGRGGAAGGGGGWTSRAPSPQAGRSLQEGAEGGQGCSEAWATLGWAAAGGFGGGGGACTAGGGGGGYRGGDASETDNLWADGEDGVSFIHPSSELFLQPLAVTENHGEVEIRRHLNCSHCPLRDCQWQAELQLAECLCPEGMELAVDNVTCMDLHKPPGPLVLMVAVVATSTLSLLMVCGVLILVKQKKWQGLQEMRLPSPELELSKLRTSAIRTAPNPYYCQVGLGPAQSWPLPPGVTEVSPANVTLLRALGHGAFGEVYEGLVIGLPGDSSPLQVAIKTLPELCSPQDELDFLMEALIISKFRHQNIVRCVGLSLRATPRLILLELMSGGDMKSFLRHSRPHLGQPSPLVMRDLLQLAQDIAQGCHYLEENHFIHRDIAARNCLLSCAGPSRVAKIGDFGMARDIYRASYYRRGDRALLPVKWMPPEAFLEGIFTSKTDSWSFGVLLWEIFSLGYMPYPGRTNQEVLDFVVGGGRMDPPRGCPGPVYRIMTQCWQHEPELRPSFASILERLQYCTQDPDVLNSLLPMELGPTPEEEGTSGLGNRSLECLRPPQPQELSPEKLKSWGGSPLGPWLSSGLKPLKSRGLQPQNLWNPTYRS
Myosin light chain kinase (Homo sapiens), sequence (Q32MK0 whole entry): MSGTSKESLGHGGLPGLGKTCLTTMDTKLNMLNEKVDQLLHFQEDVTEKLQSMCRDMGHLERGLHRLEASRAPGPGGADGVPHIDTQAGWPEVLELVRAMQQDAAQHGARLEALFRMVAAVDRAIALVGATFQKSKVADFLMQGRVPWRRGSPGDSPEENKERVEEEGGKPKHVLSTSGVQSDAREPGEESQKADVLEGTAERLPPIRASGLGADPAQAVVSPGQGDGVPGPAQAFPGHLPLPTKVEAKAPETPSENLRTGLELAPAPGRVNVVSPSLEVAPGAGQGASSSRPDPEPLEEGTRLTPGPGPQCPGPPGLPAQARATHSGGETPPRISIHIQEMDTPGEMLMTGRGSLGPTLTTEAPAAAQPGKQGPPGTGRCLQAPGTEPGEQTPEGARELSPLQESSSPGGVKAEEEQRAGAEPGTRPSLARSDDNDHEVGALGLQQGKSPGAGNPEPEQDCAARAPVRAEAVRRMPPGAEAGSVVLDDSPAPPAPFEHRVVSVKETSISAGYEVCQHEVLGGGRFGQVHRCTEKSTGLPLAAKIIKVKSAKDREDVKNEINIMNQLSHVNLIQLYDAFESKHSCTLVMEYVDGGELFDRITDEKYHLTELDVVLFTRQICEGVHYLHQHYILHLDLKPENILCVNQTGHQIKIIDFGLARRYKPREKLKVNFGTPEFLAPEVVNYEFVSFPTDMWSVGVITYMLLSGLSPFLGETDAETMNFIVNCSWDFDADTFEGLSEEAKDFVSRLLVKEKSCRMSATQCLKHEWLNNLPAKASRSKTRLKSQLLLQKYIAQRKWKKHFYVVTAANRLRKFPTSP
Tyrosine-protein kinase JAK2 (Homo sapiens), sequence (O60674 whole entry): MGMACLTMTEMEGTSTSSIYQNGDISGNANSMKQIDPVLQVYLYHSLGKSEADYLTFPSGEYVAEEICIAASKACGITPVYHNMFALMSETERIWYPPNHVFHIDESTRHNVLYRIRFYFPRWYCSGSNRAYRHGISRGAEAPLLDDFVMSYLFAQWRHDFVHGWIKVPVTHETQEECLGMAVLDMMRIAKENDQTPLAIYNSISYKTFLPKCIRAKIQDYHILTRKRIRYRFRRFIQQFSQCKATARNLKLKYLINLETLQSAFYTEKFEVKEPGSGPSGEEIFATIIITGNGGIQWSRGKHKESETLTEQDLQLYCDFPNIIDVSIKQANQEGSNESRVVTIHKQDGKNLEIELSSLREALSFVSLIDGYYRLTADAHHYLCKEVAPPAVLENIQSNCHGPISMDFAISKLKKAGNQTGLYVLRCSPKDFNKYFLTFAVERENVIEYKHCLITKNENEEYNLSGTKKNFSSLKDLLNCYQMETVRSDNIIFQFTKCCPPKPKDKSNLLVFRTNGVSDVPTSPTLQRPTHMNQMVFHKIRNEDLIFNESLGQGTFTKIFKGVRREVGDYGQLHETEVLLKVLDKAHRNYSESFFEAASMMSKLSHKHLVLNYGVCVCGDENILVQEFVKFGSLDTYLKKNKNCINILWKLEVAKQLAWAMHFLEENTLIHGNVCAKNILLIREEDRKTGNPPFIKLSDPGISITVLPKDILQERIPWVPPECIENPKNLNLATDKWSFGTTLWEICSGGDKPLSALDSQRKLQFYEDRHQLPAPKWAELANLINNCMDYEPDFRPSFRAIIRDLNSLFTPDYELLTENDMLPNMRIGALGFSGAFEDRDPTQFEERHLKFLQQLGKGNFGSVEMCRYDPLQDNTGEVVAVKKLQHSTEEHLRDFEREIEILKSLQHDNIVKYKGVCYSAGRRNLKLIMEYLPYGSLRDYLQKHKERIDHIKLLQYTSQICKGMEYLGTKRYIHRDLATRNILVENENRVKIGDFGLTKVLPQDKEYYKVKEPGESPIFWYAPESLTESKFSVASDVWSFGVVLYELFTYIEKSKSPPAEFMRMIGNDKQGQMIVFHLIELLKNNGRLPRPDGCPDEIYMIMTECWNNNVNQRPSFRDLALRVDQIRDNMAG
Serine/threonine-protein kinase Nek1 (Homo sapiens), sequence (Q96PY6 whole entry): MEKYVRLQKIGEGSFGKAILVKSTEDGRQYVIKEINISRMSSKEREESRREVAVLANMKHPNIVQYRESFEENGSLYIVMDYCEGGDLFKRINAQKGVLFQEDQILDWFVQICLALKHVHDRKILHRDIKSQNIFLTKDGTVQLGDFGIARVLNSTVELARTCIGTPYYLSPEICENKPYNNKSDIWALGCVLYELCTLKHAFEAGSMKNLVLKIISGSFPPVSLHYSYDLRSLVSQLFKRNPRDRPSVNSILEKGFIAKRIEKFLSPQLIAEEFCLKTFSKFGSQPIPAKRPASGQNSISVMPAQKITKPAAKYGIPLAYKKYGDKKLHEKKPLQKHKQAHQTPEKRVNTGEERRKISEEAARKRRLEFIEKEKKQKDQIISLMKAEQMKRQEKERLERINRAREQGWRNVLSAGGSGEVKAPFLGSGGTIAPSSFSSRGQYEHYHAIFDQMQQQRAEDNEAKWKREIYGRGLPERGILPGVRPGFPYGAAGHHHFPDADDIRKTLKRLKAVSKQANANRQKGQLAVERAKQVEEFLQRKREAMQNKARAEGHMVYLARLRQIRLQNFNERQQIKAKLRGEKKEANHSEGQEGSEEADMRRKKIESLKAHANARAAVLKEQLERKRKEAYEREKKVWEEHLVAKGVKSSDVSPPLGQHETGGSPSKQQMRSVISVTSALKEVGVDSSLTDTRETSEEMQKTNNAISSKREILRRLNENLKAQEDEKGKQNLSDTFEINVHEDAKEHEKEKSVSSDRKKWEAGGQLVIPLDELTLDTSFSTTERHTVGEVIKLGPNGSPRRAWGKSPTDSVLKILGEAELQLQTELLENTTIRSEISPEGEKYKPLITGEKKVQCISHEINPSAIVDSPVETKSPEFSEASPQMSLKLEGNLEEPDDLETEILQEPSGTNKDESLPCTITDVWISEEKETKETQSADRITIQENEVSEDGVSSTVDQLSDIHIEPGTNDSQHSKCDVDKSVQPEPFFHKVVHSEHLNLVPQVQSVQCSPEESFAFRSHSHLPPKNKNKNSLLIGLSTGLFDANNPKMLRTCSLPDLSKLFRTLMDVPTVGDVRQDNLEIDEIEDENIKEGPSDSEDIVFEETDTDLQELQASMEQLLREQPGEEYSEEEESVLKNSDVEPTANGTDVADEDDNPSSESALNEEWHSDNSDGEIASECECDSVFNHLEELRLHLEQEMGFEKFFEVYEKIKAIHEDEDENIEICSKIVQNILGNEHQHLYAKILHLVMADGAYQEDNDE
Dual specificity protein kinase CLK3 (Homo sapiens), sequence (P49761 whole entry, looked up): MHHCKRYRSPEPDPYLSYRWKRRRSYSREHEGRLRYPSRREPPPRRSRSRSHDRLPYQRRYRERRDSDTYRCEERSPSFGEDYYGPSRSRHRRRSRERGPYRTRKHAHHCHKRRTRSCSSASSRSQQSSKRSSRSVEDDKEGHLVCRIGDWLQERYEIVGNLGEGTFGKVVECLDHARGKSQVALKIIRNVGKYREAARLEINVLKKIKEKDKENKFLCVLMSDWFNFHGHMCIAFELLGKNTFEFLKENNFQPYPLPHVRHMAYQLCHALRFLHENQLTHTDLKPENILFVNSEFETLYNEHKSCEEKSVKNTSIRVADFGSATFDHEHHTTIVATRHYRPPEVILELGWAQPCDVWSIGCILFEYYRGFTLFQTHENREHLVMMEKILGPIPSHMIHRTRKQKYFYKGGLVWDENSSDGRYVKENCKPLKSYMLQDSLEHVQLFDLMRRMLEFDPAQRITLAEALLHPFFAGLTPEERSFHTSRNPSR
Calcium/calmodulin-dependent protein kinase type II subunit delta (Homo sapiens), sequence (Q13557 whole entry): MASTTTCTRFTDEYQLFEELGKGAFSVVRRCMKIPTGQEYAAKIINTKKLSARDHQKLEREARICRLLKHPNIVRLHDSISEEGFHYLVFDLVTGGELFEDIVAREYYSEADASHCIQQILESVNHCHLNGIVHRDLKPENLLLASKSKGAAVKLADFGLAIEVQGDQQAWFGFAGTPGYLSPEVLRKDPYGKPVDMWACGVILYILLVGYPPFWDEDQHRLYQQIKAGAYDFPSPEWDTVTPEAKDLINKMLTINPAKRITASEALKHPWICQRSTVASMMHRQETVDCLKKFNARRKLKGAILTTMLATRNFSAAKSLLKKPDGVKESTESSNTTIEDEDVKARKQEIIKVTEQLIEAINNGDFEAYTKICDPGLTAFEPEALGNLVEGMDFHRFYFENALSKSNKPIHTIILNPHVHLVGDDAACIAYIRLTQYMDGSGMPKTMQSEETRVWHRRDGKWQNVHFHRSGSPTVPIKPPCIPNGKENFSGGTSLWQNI

CNC(=O)Nc1ccc2c(c1)CC[C@@]21OC(=O)N(CC(=O)N(Cc2ccc(F)cc2)[C@@H](C)C(F)(F)F)C1=O [A-485]
inactive: residual activity [1] 73% | inhibition [2] 18.5% | residual activity [3] 77% | residual activity [4] 100% | inhibition ([5]; filed as antagonist; Compound concentration 10.0 uM) 4% | residual activity [6] 70% | residual activity [7] 83% | residual activity [8] 79% | residual activity [9] 67% | residual activity [10] 100% | residual activity [11] 83% | residual activity [12] 71% | residual activity [13] 80% | inhibition [14] -4% | residual activity [15] 92% | inhibition [16] 10.1% | inhibition [17] -4% | residual activity [18] 96% | residual activity [19] 81% | residual activity [20] 83% | residual activity [21] 100% | residual activity [22] 90% | residual activity [23] 70% | residual activity [24] 83% | residual activity [25] 91% | inhibition [26] 1.99% | residual activity [27] 81% | residual activity [28] 100% | residual activity [29] 100% | residual activity [30] 70% | inhibition [31] 17% | residual activity [32] 76% | residual activity [33] 100% | inhibition [34] 0% | inhibition [35] 20.7% | residual activity [36] 78% | residual activity [37] 91% | residual activity [38] 75%

CNC(=O)Nc1ccc2c(c1)[C@@]1(CC2)OC(=O)N(CC(=O)N(Cc2ccc(F)cc2)[C@@H](C)C(F)(F)F)C1=O [A-486]
inactive: residual activity [1] 100% | inhibition [2] 8.21% | residual activity [3] 90% | residual activity [4] 90% | inhibition ([5]; filed as antagonist, Compound concentration 10.0 uM) 2% | residual activity [6] 64% | residual activity [7] 63% | residual activity [8] 96% | residual activity [9] 70% | residual activity [10] 100% | residual activity [11] 100% | residual activity [12] 89% | residual activity [13] 76% | inhibition [14] 41% | residual activity [15] 100% | inhibition [16] 5.16% | inhibition [17] 4% | residual activity [18] 100% | residual activity [19] 82% | residual activity [20] 88% | residual activity [21] 98% | residual activity [22] 85% | residual activity [23] 89% | residual activity [24] 84% | residual activity [25] 92% | inhibition [26] -7.68% | residual activity [27] 93% | residual activity [28] 100% | residual activity [29] 100% | residual activity [30] 100% | inhibition [31] 6% | residual activity [32] 81% | residual activity [33] 100% | inhibition [34] 4% | inhibition [35] 8.88% | residual activity [36] 86% | residual activity [37] 100% | residual activity [38] 88%
